Laboratory results as given in ChEMBL document CHEMBL4828705, “Inhibition studies on carbonic anhydrase isoforms I, II, IV and IX with N-arylsubstituted secondary sulfonamides featuring a bicyclic tetrahydroindazole scaffold” (Eur J Med Chem, 2021).

Tests used:
[1] = molecular target: Carbonic anhydrase 2 (Homo sapiens, UniProt P00918); assay: Inhibition of recombinant human CA2 preincubated for 15 mins by phenol red dye-based stopped-flow CO2 hydration assay
[2] = molecular target: Carbonic anhydrase 9 (Homo sapiens, UniProt Q16790); assay: Inhibition of recombinant human CA9 preincubated for 15 mins by phenol red dye-based stopped-flow CO2 hydration assay
[3] = molecular target: Carbonic anhydrase 1 (Homo sapiens, UniProt P00915); assay: Inhibition of recombinant human CA1 preincubated for 15 mins by phenol red dye-based stopped-flow CO2 hydration assay
[4] = molecular target: Carbonic anhydrase 4 (Homo sapiens, UniProt P22748); assay: Inhibition of recombinant human CA4 preincubated for 15 mins by phenol red dye-based stopped-flow CO2 hydration assay
Chain of Carbonic anhydrase 4 (P22748 whole entry): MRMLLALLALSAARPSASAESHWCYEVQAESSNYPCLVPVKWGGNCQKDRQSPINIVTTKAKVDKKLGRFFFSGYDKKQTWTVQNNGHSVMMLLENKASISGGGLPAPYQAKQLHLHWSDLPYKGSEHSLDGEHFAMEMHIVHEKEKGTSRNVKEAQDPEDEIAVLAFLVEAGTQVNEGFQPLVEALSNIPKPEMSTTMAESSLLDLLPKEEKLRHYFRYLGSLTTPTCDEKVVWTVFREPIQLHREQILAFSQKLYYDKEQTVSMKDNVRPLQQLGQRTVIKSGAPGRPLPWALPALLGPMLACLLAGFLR

Chain of Carbonic anhydrase 1 (P00915 whole entry): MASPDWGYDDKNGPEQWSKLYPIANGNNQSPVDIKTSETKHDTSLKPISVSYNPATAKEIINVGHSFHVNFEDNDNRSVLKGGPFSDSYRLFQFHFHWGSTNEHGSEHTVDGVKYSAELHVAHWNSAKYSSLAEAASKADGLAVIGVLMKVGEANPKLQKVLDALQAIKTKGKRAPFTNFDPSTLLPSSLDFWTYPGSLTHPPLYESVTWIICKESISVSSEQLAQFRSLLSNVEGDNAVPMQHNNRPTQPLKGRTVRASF

SMILES | Ki [1] [µM] | Ki [2] [µM] | Ki [3] [µM] | Ki [4] [µM]
CC1(C)CC(=O)c2cnn(-c3ccc(S(=O)(=O)Nc4cccc(Cl)c4)cc3)c2C1 | > 100 | > 100 | > 100 | 
O=C1CC(c2ccccc2)Cc2c1cnn2-c1ccc(S(=O)(=O)Nc2ccccc2)cc1 (centres undefined) |  | 95.4 |  | 
CC1(C)CC(=O)c2cnn(-c3ccc(S(=O)(=O)Nc4ccc([N+](=O)[O-])cc4)cc3)c2C1 |  | > 100 | > 100 | 
O=C1CC(c2ccccc2)Cc2c1cnn2-c1ccc(S(=O)(=O)Nc2cccc(Cl)c2)cc1 (centres undefined) |  | 41.8 |  | 
Cc1ccc(NS(=O)(=O)c2ccc(-n3ncc4c3CC(C)(C)CC4=O)cc2)cc1 |  | > 100 | > 100 | 
CC1(C)CC(=O)c2cnn(-c3ccc(S(=O)(=O)Nc4ccccc4)cc3)c2C1 |  | > 100 |  | 
O=C1CCCc2c1cnn2-c1ccc(S(=O)(=O)Nc2ccc([N+](=O)[O-])cc2)cc1 |  | 83.7 |  | 
Cc1cccc(NS(=O)(=O)c2ccc(-n3ncc4c3CC(c3ccccc3)CC4=O)cc2)c1 (centres undefined) |  | 61.5 |  | > 100
Cc1cccc(NS(=O)(=O)c2ccc(-n3ncc4c3CC(C)(C)CC4=O)cc2)c1 | > 100 | > 100 | > 100 | 
CC1(C)CC(=O)c2cnn(-c3ccc(S(=O)(=O)Nc4cccc([N+](=O)[O-])c4)cc3)c2C1 |  | > 100 | > 100 | 
O=C1CC(c2ccccc2)Cc2c1cnn2-c1ccc(S(=O)(=O)Nc2ccc([N+](=O)[O-])cc2)cc1 (centres undefined) |  | 4.1 |  | 
COc1cccc(NS(=O)(=O)c2ccc(-n3ncc4c3CC(c3ccccc3)CC4=O)cc2)c1 (centres undefined) |  | 57.3 |  | 
Cc1ccc(NS(=O)(=O)c2ccc(-n3ncc4c3CC(c3ccccc3)CC4=O)cc2)cc1 (centres undefined) |  | 46.7 |  | 
COc1ccc(NS(=O)(=O)c2ccc(-n3ncc4c3CC(C)(C)CC4=O)cc2)cc1 |  | > 100 |  | 
O=C1CC(c2ccccc2)Cc2c1cnn2-c1ccc(S(=O)(=O)Nc2ccc(Cl)cc2)cc1 (centres undefined) |  | 47 |  | 
COc1ccc(NS(=O)(=O)c2ccc(-n3ncc4c3CC(c3ccccc3)CC4=O)cc2)cc1 (centres undefined) |  | 40 |  | 
O=C1CC(c2ccccc2)Cc2c1cnn2-c1ccc(S(=O)(=O)Nc2cccc([N+](=O)[O-])c2)cc1 (centres undefined) |  | 84.7 |  | > 100
CC1(C)CC(=O)c2cnn(-c3ccc(S(=O)(=O)Nc4ccc(Cl)cc4)cc3)c2C1 |  | > 100 |  | 

Now from value to molecule:

Ki [1] [µM] | Ki [2] [µM] | Ki [3] [µM] | Ki [4] [µM] | SMILES
> 100 | > 100 |  |  | O=C1CCCc2c1cnn2-c1ccc(S(=O)(=O)Nc2cccc([N+](=O)[O-])c2)cc1
 | > 100 |  |  | COc1cccc(NS(=O)(=O)c2ccc(-n3ncc4c3CC(C)(C)CC4=O)cc2)c1
 | 39.2 |  |  | Cc1ccc(NS(=O)(=O)c2ccc(-n3ncc4c3CCCC4=O)cc2)cc1
 | 97.9 |  |  | O=C1CCCc2c1cnn2-c1ccc(S(=O)(=O)Nc2ccccc2)cc1
 | 37.1 |  |  | O=C1CCCc2c1cnn2-c1ccc(S(=O)(=O)Nc2cccc(Cl)c2)cc1
 | 33 |  |  | Cc1cccc(NS(=O)(=O)c2ccc(-n3ncc4c3CCCC4=O)cc2)c1
> 100 | > 100 |  | > 100 | COc1cccc(NS(=O)(=O)c2ccc(-n3ncc4c3CCCC4=O)cc2)c1
 | 56.5 |  |  | COc1ccc(NS(=O)(=O)c2ccc(-n3ncc4c3CCCC4=O)cc2)cc1
 | > 100 |  |  | O=C1CCCc2c1cnn2-c1ccc(S(=O)(=O)Nc2ccc(Cl)cc2)cc1
